pIC50: −log10 of the molar value. Where two headings read alike, the source gives them in different places.
What was measured:
[1] = target: T1, human TLR8 (Homo sapiens, UniProt Q9NR97); assay: Inhibition of human TLR8 in human monocytes (TNF-alpha / IL-1 beta ELISA); format: cell-based; details: for pIC50: human monocytes, agonist ORN8L 100 μg/mL, 24 hours; for inhibits TLR8-dependent responses (in words): summary statement of the description
T1 construct: endogenous in cells; host or cells: primary human monocytes (CD14 microbeads) from buffy coats of healthy donors
T1 sequence (Q9NR97 27-1041): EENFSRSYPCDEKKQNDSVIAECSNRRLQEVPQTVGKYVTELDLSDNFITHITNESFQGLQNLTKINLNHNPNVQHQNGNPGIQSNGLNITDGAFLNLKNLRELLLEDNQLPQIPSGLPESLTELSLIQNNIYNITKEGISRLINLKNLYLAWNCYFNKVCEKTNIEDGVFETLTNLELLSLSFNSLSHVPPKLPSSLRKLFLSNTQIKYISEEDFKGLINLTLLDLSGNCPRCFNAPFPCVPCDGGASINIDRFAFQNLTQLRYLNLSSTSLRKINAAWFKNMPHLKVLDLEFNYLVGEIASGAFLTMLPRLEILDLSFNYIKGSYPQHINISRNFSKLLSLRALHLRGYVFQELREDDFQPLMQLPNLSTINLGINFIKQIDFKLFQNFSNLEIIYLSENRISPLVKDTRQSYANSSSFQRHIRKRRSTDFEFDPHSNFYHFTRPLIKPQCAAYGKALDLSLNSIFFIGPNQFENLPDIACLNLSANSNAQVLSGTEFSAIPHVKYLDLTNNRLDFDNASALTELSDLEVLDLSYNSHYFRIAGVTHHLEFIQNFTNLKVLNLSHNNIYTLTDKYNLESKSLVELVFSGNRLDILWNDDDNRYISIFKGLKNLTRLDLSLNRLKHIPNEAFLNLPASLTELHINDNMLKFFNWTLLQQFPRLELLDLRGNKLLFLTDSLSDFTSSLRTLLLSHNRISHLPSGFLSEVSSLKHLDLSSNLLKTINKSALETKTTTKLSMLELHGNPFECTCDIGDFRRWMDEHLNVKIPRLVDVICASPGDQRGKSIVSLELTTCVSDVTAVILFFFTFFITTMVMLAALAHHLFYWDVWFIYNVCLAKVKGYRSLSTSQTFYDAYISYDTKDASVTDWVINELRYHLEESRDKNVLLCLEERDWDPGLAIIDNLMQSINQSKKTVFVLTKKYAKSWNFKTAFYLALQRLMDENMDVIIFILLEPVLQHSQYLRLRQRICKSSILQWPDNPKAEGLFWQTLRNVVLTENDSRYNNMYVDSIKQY
How it was run: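 Primary human monocytes from donor buffy coats (~200,000 cells/well) given serially diluted compound, then ORN8L RNA oligonucleotide agonist at 100 μg/mL final. After 24 h at 37 °C, supernatant TNF-alpha and/or IL-1 beta measured by ELISA; IC50 from the concentration-response of cytokine release.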

[2] = Plasma stability in human plasma; format: in vitro ADME; details: plasma (90%); 90% human plasma, 2 μM compound, 37° C., 0-60 minutes; read-out: T1/2 in human plasma
Procedure: Example B6—Plasma Stability
The stability of compounds in human plasma was tested. Human plasma was spiked with compound to final concentration of 90% plasma and 2 μM compound. Samples were incubated for 0, 5, 15, 30, 45 and 60 minutes at 37° C. The reaction was stopped by the addition of acetonitrile. An aliquot of the stopped reaction was mixed with ultra-pure water (Millipore, ZMQS50F01) and analyzed by liquid chromatography/electrospray ionization mass spectroscopy.

[3] = Metabolic stability in human liver microsomes; format: in vitro ADME; details: 0.5 mg/mL microsomal protein, 1.5 μM compound, 37° C.; for half-life at 1.5 μM: 0-45 minutes, read-out: T1/2 in human liver microsomes
Procedure: Example B7—Metabolic Stability
The stability of compounds in human liver microsomes was tested. Human liver microsomes (from BD Gentest) were spiked with compounds to a final liver microsomal protein concentration of 0.5 mg/mL and a final compound concentration of 1.5 μM. Samples were incubated for 0, 5, 15, 30, 45 minutes at 37° C. The reaction was stopped by the addition of acetonitrile. An aliquot of the stopped reaction was mixed with ultra-pure water (Millipore, ZMQS50F01) and analyzed by liquid chromatography/electrospray ionization mass spectroscopy.

[4] = IL-1 beta readout, read-out: Human TLR8 IC50 IL-1b
[5] = TNF-alpha readout, read-out: Human TLR8 IC50 TNF-a

## Cc1ccc(-n2nc3c(N4CCC(C(=O)NCC(C)(C)CNc5ccccc5)CC4)nnc(C)c3c2C)cc1 [2-1]
[1]; [4]
  pIC50: 5.00
[1]; [5]
  pIC50: 5.01

## Cc1ccc(-n2nc3c(N4CCC(C(=O)NCCCN(C)Cc5ccccc5)CC4)nnc(C)c3c2C)cc1 [Compound No. 1, N-(3-(benzyl(methyl)amino)propyl)-1-(3,4-dimethyl-2-(p-tolyl)-2H-pyrazolo[3,4-d]pyridazin-7-yl)piperidine-4-carboxamide]
[1]; [4]
  pIC50: 6.13
[1]; [5]
  pIC50: 6.21
[1]
  inhibits TLR8-dependent responses (in words): inhibit
[2]
  half-life at 2 μM: 3.74 h
[3]
  CLint scaled at 1.5 μM: 347 mL/min/kg
  half-life at 1.5 μM: 0.0833 h

## Cc1ccc(-n2nc3c(N4CCC(C(=O)N5CCN(Cc6ccccc6)CC5)CC4)nnc(C)c3c2C)cc1 [Compound No. 2, (4-benzylpiperazin-1-yl)(1-(3,4-dimethyl-2-(p-tolyl)-2H-pyrazolo[3,4-d]pyridazin-7-yl)piperidin-4-yl)methanone]
[1]; [4]
  pIC50: 6.05
[1]; [5]
  pIC50: 6.17
[1]
  inhibits TLR8-dependent responses (in words): inhibit

## Cc1ccc(-n2nc3c(N4CCC(C(=O)NC5CN(C)C5)CC4)nnc(C)c3c2C)cc1 [Compound No. 3, 1-(3,4-dimethyl-2-(p-tolyl)-2H-pyrazolo[3,4-d]pyridazin-7-yl)-N-(1-methylazetidin-3-yl)piperidine-4-carboxamide]
[1]; [4]
  pIC50: < 5.00
[1]; [5]
  pIC50: < 5.00
[2]
  half-life at 2 μM: 3.45 h
[3]
  CLint scaled at 1.5 μM: 4.5 mL/min/kg
  half-life at 1.5 μM: 6.4 h

## Cc1ccc(-n2nc3c(N4CCC(C(=O)NC5CN(Cc6ccccc6)C5)CC4)nnc(C)c3c2C)cc1 [Compound No. 4, N-(1-benzylazetidin-3-yl)-1-(3,4-dimethyl-2-(p-tolyl)-2H-pyrazolo[3,4-d]pyridazin-7-yl)piperidine-4-carboxamide]
[1]; [4]
  pIC50: 6.00
[1]; [5]
  pIC50: 6.11
[1]
  inhibits TLR8-dependent responses (in words): inhibit

## Cc1ccc(-n2nc3c(N4CCC(C(=O)NCCCN(C)C)CC4)nnc(C)c3c2C)cc1 [Compound No. 5, 1-(3,4-dimethyl-2-(p-tolyl)-2H-pyrazolo[3,4-d]pyridazin-7-yl)-N-(3-(dimethylamino)propyl)piperidine-4-carboxamide]
[1]; [4]
  pIC50: < 5.00
[1]; [5]
  pIC50: < 5.00
[2]
  half-life at 2 μM: 17.9 h
[3]
  CLint scaled at 1.5 μM: 2.2 mL/min/kg
  half-life at 1.5 μM: 13.3 h

## Cc1ccc(-n2nc3c(N4CCC(C(=O)NCCCc5c[nH]cn5)CC4)nnc(C)c3c2C)cc1 [Compound No. 6, N-(3-(1H-imidazol-4-yl)propyl)-1-(3,4-dimethyl-2-(p-tolyl)-2H-pyrazolo[3,4-d]pyridazin-7-yl)piperidine-4-carboxamide]
[1]; [4]
  pIC50: < 5.00
[1]; [5]
  pIC50: 5.18

## Cc1ccc(-n2nc3c(N4CCC(CCC(=O)NCCN(C)C)CC4)nnc(C)c3c2C)cc1 [Compound No. 9, 3-(1-(3,4-dimethyl-2-(p-tolyl)-2H-pyrazolo[3,4-d]pyridazin-7-yl)piperidin-4-yl)-N-(2-(dimethylamino)ethyl)propanamide]
[1]; [4]
  pIC50: 5.30
[1]; [5]
  pIC50: 5.91
